In PubChem BioAssay (NCI):
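Interpolation was linear, between the two tested concentrations surrounding the appropriate level; five concentrations were tested over 48 hours in 96-well plates. Abbreviation: GI50, concentration required for 50% inhibition of growth. Definition used: TGI = concentration required for complete inhibition of growth.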 *1 amine or outer side, *2 acyl side, *3 side chain or, on linkers, in order; H or OH if unused. Where a SMILES comes first, the peptide text is derived from it. [ ]: non-standard residue; d: D form. X38 = CSCCCC(N[*:1])C(=O)[*:2]

Experiments:
Test in all cases: DTP human tumour cell line panel, 48 h
[1] = system: OVCAR-4 ovarian
[2] = system: LOX IMVI melanoma
[3] = system: SF-268 CNS
[4] = system: NCI-H460 lung
[5] = system: TK-10 renal
[6] = system: RPMI-8226 leukemia
[7] = system: HL-60(TB) leukemia
[8] = system: SK-OV-3 ovarian
[9] = system: CAKI-1 renal
[10] = system: MOLT-4 leukemia
[11] = system: SNB-75 CNS
[12] = system: 786-0 renal
[13] = system: NCI-H522 lung
[14] = system: HS 578T breast
[15] = system: OVCAR-3 ovarian
[16] = system: ACHN renal
[17] = system: HOP-62 NSCLC
[18] = system: HCT-116 colon
[19] = system: HT29 colon
[20] = system: SF-295 CNS
[21] = system: SF-539 CNS
[22] = system: SK-MEL-5 melanoma
[23] = system: HOP-92 NSCLC
[24] = system: NCI/ADR-RES ovarian
[25] = system: KM12 colon
[26] = system: SN12C renal
[27] = system: U251 CNS
[28] = system: MCF7 breast
[29] = system: DU-145 prostate
[30] = system: K-562 leukemia
[31] = system: MDA-MB-435
[32] = system: MDA-MB-231 breast
[33] = system: SK-MEL-2 melanoma
[34] = system: OVCAR-8 ovarian
[35] = system: SNB-19 CNS
[36] = system: NCI-H23 lung
[37] = system: A549 NSCLC
[38] = system: UO-31 renal
[39] = system: UACC-257 melanoma
[40] = system: EKVX NSCLC
[41] = system: BT-549 breast
[42] = system: MALME-3M melanoma
[43] = system: SW-620 colon
[44] = system: UACC-62 melanoma
[45] = system: NCI-H226 lung
[46] = system: CCRF-CEM leukemia
[47] = system: IGROV1 ovarian
[48] = system: PC-3 prostate
[49] = system: COLO 205 colon
[50] = system: OVCAR-5 ovarian
[51] = system: SK-MEL-28 melanoma
[52] = system: HCT-15 colon
[53] = system: RXF 393 renal
[54] = system: T-47D breast
[55] = system: A498 renal
[56] = system: HCC-2998 colon
[57] = system: SR leukemia
[58] = system: M14 melanoma

COc1cc2c3c(n(CCCN4CCN(C)CC4)c(=O)c2cc1OC)-c1cc2c(cc1C3=O)OCO2
GI50 [1]: 4.17 µM
TGI [1]: 18.6 µM
GI50 [2]: 3.81 µM
TGI [2]: 20.4 µM
GI50 [3]: 11.9 µM
TGI [3]: 41.8 µM
GI50 [4]: 5.8 µM
TGI [4]: 28.2 µM
GI50 [5]: 17.1 µM
TGI [5]: 31.9 µM
GI50 [6]: 2.39 µM
TGI [6]: 14.1 µM
GI50 [7]: 19.5 µM
TGI [7]: 57.6 µM
GI50 [8]: 12.3 µM
TGI [8]: 34 µM
GI50 [9]: 10.3 µM
TGI [9]: 23.7 µM
TGI [10]: 0.0353 µM
GI50 [11]: 16 µM
TGI [11]: 36 µM
GI50 [12]: 12.9 µM
TGI [12]: 25.5 µM
GI50 [13]: 15.4 µM
TGI [13]: 45.4 µM
GI50 [14]: 13.9 µM
TGI [14]: 73 µM
GI50 [15]: 15.3 µM
TGI [15]: 30.1 µM
GI50 [16]: 10.1 µM
TGI [16]: 22.4 µM
GI50 [17]: 18 µM
TGI [17]: 95.8 µM
GI50 [18]: 1.49 µM
TGI [18]: 11.5 µM
GI50 [19]: 16.9 µM
TGI [19]: > 100 µM
GI50 [20]: 10.7 µM
TGI [20]: 31.7 µM
GI50 [21]: 17.7 µM
TGI [21]: 38.2 µM
GI50 [22]: 14.2 µM
TGI [22]: 32.2 µM
GI50 [23]: 19.8 µM
TGI [23]: 46.9 µM
GI50 [24]: 1.55 µM
TGI [24]: 12.9 µM
GI50 [25]: 12.8 µM
TGI [25]: 29 µM
GI50 [26]: 11.4 µM
TGI [26]: 24.1 µM
GI50 [27]: 11.4 µM
TGI [27]: 27.5 µM
GI50 [28]: 8.82 µM
TGI [28]: 64.8 µM
GI50 [29]: 10.6 µM
TGI [29]: 27.5 µM
GI50 [30]: 6.49 µM
TGI [30]: 22 µM
GI50 [31]: > 100 µM
TGI [31]: > 100 µM
GI50 [32]: 15.3 µM
TGI [32]: 32.4 µM
GI50 [33]: > 100 µM
TGI [33]: > 100 µM
GI50 [34]: 18.1 µM
TGI [34]: 46.5 µM
GI50 [35]: > 100 µM
TGI [35]: > 100 µM
GI50 [36]: 11.9 µM
TGI [36]: 24.1 µM
GI50 [37]: 18.7 µM
TGI [37]: 84.2 µM
GI50 [38]: 20.6 µM
TGI [38]: 62.8 µM
GI50 [39]: > 100 µM
TGI [39]: > 100 µM
GI50 [40]: 17.7 µM
TGI [40]: 41.1 µM
GI50 [41]: 80.8 µM
TGI [41]: > 100 µM
GI50 [42]: 24.8 µM
TGI [42]: 42.3 µM
GI50 [43]: 11.2 µM
TGI [43]: 54.1 µM
GI50 [44]: 15.1 µM
TGI [44]: 34.2 µM
GI50 [45]: 13.9 µM
TGI [45]: 31 µM
GI50 [46]: 2.44 µM
TGI [46]: 17.7 µM
GI50 [47]: 7.05 µM
TGI [47]: 80.6 µM
GI50 [48]: 15.8 µM
TGI [48]: 36.4 µM
GI50 [49]: 10.3 µM
TGI [49]: 40.3 µM
GI50 [50]: 17.6 µM
TGI [50]: 31.4 µM
GI50 [51]: 16.5 µM
TGI [51]: 43.2 µM
GI50 [52]: 16 µM
TGI [52]: 36.1 µM
GI50 [53]: 20.5 µM
TGI [53]: 55 µM

CSCCCC(NC(=O)CNC(=O)C1CCCN1C(=O)C(Cc1ccc(O)cc1)NC(=O)C(Cc1ccccc1)NC(=O)C(CCCN=C(N)N)NC(=O)C(CC(=O)O)NC(=O)C1CCCN1C(=O)C(CC(=O)O)NC(=O)C1CCCN1C(=O)C1CCCN1C(=O)CN)C(N)=O (configuration not stated) (H-GPPDPDRFYPG[X38]-NH2; configuration not given here)
TGI [23]: > 50 µM
TGI [36]: > 50 µM
TGI [39]: > 50 µM
TGI [41]: > 50 µM
TGI [45]: > 50 µM

CN(C)c1ccc(/C=C/c2sc3ccc4ccccc4c3[n+]2C)cc1
GI50 [5]: 0.41 µM
TGI [5]: 1.92 µM
GI50 [7]: 0.33 µM
TGI [7]: 1.18 µM
GI50 [8]: 0.482 µM
TGI [8]: 2.4 µM
GI50 [9]: 0.211 µM
TGI [9]: 0.627 µM
GI50 [16]: 0.537 µM
TGI [16]: > 100 µM
GI50 [20]: 0.395 µM
TGI [20]: 2.32 µM
GI50 [23]: 0.636 µM
TGI [23]: 2.84 µM
GI50 [24]: 2.81 µM
TGI [24]: > 100 µM
GI50 [54]: 0.367 µM
GI50 [26]: 0.359 µM
TGI [26]: 3.43 µM
GI50 [30]: 0.199 µM
TGI [30]: > 100 µM
GI50 [55]: 0.539 µM
TGI [55]: 2.85 µM
GI50 [32]: 0.526 µM
TGI [32]: 2.62 µM
GI50 [34]: 0.285 µM
TGI [34]: 1.67 µM
GI50 [35]: 0.521 µM
TGI [35]: > 100 µM
GI50 [38]: 0.401 µM
TGI [38]: 3.84 µM
GI50 [56]: 0.365 µM
TGI [56]: 1.57 µM
GI50 [46]: 0.33 µM
TGI [46]: > 100 µM
GI50 [47]: 0.368 µM
TGI [47]: 1.66 µM
GI50 [48]: 0.315 µM
TGI [48]: 1.71 µM
GI50 [52]: 0.692 µM
TGI [52]: > 31.5 µM

Nc1ccn(C2CSC(CO)O2)c(=O)n1 (configuration not stated)
GI50 [36]: > 1000 µM
TGI [36]: > 1000 µM

Cc1cccc(-c2cc(=O)c3ccc(C)nc3[nH]2)c1
TGI [57]: 2.07 µM
TGI [1]: > 100 µM
TGI [2]: > 100 µM
TGI [3]: > 100 µM
TGI [4]: 19.5 µM
TGI [5]: > 84.6 µM
TGI [6]: 23.2 µM
TGI [7]: 0.526 µM
TGI [8]: > 100 µM
TGI [9]: > 100 µM
TGI [10]: > 80.6 µM
TGI [11]: 49.2 µM
TGI [12]: > 100 µM
TGI [13]: 0.75 µM
TGI [15]: 0.503 µM
TGI [16]: > 100 µM
TGI [17]: > 100 µM
TGI [18]: > 20.4 µM
TGI [19]: 1.82 µM
TGI [20]: 14.9 µM
TGI [21]: 14.6 µM
TGI [22]: 15.4 µM
TGI [23]: 57.7 µM
TGI [24]: 0.383 µM
TGI [54]: > 100 µM
TGI [25]: 20.5 µM
TGI [26]: > 100 µM
TGI [27]: > 100 µM
TGI [28]: > 100 µM
TGI [29]: > 56.9 µM
TGI [30]: > 100 µM
TGI [55]: > 51.1 µM
TGI [32]: 5.87 µM
TGI [33]: > 100 µM
TGI [34]: > 100 µM
TGI [35]: > 100 µM
TGI [36]: > 37.9 µM
TGI [37]: > 100 µM
TGI [38]: > 100 µM
TGI [56]: 27.4 µM
TGI [40]: > 100 µM
TGI [41]: > 100 µM
TGI [42]: > 100 µM
TGI [58]: > 100 µM
TGI [44]: > 100 µM
TGI [45]: 26.8 µM
TGI [46]: > 22.8 µM
TGI [47]: > 100 µM
TGI [48]: > 82.9 µM
TGI [49]: 4.06 µM
TGI [50]: > 100 µM
TGI [51]: > 100 µM
TGI [52]: > 35.2 µM
TGI [53]: > 100 µM
